This is an account of results in ChEMBL document CHEMBL5727197, “Bicyclic urea, thiourea, guanidine and cyanoguanidine compounds useful for the treatment of pain” (2019).

For this test, the target named is High affinity nerve growth factor receptor (Homo sapiens, UniProt P04629). As to the kind of experiment: Kinase Binding Assay: TrkA binding activity was determined in a TrkA LanthaScreen™ Eu Kinase Binding Assay. 5 nM His-tagged recombinant human TrkA (6HIS tagged cytoplasmic domain from Invitrogen, Catalog No. PV3144) was incubated with 4 nM Alexa-Fluor® Tracer 236 (Invitrogen Cat. No. PV5592), 2 nM biotinylated anti-His (Invitrogen Cat. No. PV6090), and 2 nM europium-labeled Streptavidin (Invitrogen Cat. No. PV5899), in buffer (25 mM MOPS, pH 7.5, 5 mM MgCl2, 0.005% Triton X-100). Three fold serial dilutions of compounds of the invention in DMSO were added to a final percentage of 2% DMSO. After 60-minute incubation at 22° C., the reaction was measured using the EnVision mutlimode plate reader (PerkinElmer) via TR-FRET dual wavelength detection at […]. The percent of control was calculated using a ratiometric emission factor.
High affinity nerve growth factor receptor, sequence (P04629 whole entry, the tested form may be a part): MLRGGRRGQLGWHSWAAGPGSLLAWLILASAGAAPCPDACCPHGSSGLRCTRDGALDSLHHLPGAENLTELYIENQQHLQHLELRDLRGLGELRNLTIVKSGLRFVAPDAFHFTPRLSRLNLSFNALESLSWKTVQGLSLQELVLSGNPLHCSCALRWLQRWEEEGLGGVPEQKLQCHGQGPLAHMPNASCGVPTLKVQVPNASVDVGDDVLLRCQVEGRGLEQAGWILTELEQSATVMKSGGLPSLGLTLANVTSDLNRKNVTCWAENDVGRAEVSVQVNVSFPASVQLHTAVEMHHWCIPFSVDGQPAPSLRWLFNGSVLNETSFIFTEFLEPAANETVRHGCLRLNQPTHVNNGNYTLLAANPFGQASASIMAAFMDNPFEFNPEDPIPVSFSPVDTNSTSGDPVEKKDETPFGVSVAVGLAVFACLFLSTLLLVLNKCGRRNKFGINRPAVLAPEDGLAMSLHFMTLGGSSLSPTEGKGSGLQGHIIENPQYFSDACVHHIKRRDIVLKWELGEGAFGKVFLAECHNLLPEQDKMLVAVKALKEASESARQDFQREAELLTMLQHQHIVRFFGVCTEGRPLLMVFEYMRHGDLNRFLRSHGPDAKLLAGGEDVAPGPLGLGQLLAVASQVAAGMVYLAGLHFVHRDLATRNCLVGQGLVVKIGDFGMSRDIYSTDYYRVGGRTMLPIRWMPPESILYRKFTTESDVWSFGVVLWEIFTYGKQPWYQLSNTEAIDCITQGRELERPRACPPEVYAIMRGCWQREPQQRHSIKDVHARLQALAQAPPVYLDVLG

A word on the IC50: it is the concentration that gives 50% inhibition. For `CC(C)(C)OC(=O)N1CCO[C@@H](COc2nn(-c3ccccc3)c(NC(=O)N[C@@H]3c4ccccc4C4(CC4)[C@H]3O)c2Cl)C1`, the IC50 was < 0.1 µM.

With `Cc1c(-c2ccc(=O)n(C)c2)nn(-c2ccccc2)c1NC(=O)NC1CN(CC(F)(F)F)Cc2ccccc21` (stereo not drawn), the IC50 was < 0.1 µM.

Take `CC1(C)C[C@@H](O)[C@H](NC(=O)Nc2c3c(nn2-c2ccccc2)COC3)c2ccccc21` (relative stereo): the IC50 is < 0.1 µM.
